Where a SMILES comes first, the peptide text is derived from it. [ ]: non-standard residue; d: D form. NMeI = CC[C@H](C)[C@H](NC)C(=O)O; Sar = CNCC(=O)O
Key:
Aβ40 [1] = target: T1, Aβ40 (Homo sapiens, UniProt P05067); test: Aβ40 fibrillogenesis by ThT binding, confirmed by TEM, with cell damage by MTT reduction; assay type: biochemical; details: Aβ40 16.5 μM, MTT in PC12 cells
T1 construct: Aβ40 (TFA salt) was synthesized by Fmoc-based solid phase synthesis (SPPS); made in house; host or cells: chemical synthesis (Fmoc SPPS on Tentagel R PHB resin)
Experimental: (§1) Thioflavin T (ThT) Binding Assays
(§2) At indicated time points, aliquots were gently mixed with a ThT solution (20 μM ThT in 0.05 M glycine/NaOH, pH 8.5); ThT binding was determined immediately by measuring fluorescence emission at 486 nm upon excitation at 450 nm using a 2030 Multilabel Reader VictorX3 (PerkinElmer Life Sciences). Effects of peptides added at specific pre- and post-nucleation time points of Aβ40 amyloidogenesis were studied by adding aliquots of Aβ40 solutions (16.5 μM; incubation conditions as above) aged for the indicated time points to the peptide (in dry form) as previously described and ThT binding was determined as above.
(§3) 10 μl aliquots of solutions of the ThT binding and MTT assays were applied on carbon-coated grids at indicated time points, washed with distilled water and stained with aqueous 2% (w/v) uranyl acetate as described. Grids were examined using a JEOL JEM 100CX (at 100 kV) or a JEOL 1400 Nus electron microscope (at 120 kV).
(§4) Both cell lines were cultured and plated in 96-well plates as described. […] Following incubation with the cells for ˜20 h (37° C., humidified atmosphere with 5% CO2), the MTT reduction assay was used to assess cell damage/metabolic activity as previously described.

[2] = Peptide stability in human plasma (in vitro); assay type: in vitro ADME; details: human blood plasma, 200 μM peptide, 37° C., read-out: t1/2 in human plasma
Experimental: Peptide Stability in Human Plasma (In Vitro)
Peptides were dissolved in human blood plasma (obtained from voluntary healthy donors) at a concentration of 200 μM and incubated at 37° C. for various time intervals. Following quenching (1/1) with aqueous trichloroacetic acid (10%), solutions were incubated on ice for 10 min, subjected to centrifugation to precipitate plasma proteins (20200 g; 4 min), and the supernatants were mixed (1/2) with a solution consisting of 80% HPLC buffer B and 20% HPLC buffer A (see below). To quantify intact peptide at different time points, solutions containing the supernatants were analyzed by RP-HPLC (detection at 214 nm) by using a Nucleosil 100 C18 column (Grace) (length 33 mm length, ID 8 mm, 7 μm particle size) with a flow rate of 2.0 ml/min and eluting buffers A, 0.058% (v/v) TFA in water, and B, 0.05% (v/v) TFA in 90% (v/v) CH3CN in water. The elution gradient was 10-90% B in A over 8 min; this step was followed by a 90-10% B in A over 3 min step to establish starting conditions. HPLC fractions were collected, lyophilized, and analyzed by MALDI-TOF-MS using a Bruker Daltonik MALDI-TOF MS instrument.

Aβ40 [3] = target: T1, Aβ40; details: Aβ40 500 nM; value marked with literature reference [5]; read-out: IC50 (±SD) (nM) Aβ40 inhibition; cited from earlier work
Aβ40 [4] = target: T1, Aβ40; details: as previously found; cited from earlier work
IAPP [5] = target: T2, IAPP (Homo sapiens, UniProt P10997); test: IAPP fibrillogenesis by ThT binding, confirmed by TEM, with cell damage by MTT reduction; assay type: biochemical; design: IAPP was synthesized by SPPS and the Fmoc-strategy on RINK resin, subjected to air oxidation and purified by RP-HPLC; made in house; host or cells: chemical synthesis (Fmoc SPPS on RINK resin, air oxidation); details: IAPP 6 μM, MTT in RIN5fm cells
T2 sequence (P10997 34-70 limits assumed): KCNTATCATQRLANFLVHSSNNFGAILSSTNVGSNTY
Experimental: as §1, §2, §3, §4

IAPP [6] = target: T2, IAPP; design: IAPP was synthesized by SPPS and the Fmoc-strategy on RINK resin, subjected to air oxidation and purified by RP-HPLC; made in house; host or cells: chemical synthesis (Fmoc SPPS on RINK resin, air oxidation); details: as previously found; cited from earlier work

T1 sequence (P05067 672-711): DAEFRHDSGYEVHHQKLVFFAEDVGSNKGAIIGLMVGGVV

- half-life at 200 μM [2]: ~20 min
Structure (SMILES): CC[C@H](C)[C@@H](C(=O)N[C@@H](CC(C)C)C(=O)N[C@@H](CO)C(N)=O)N(C)C(=O)[C@H](C)NC(=O)CN(C)C(=O)[C@H](Cc1ccccc1)NC(=O)[C@H](CC(N)=O)NC(=O)[C@H](CCCNC(=N)N)NC(=O)[C@H](CCCNC(=N)N)NC(=O)[C@H](CCCNC(=N)N)NC(=O)[C@H](Cc1c[nH]cn1)NC(=O)[C@@H](NC(=O)[C@H](CC(C)C)NC(=O)[C@H](Cc1ccccc1)NC(=O)[C@H](CC(N)=O)NC(=O)[C@H](C)NC(=O)[C@H](CC(C)C)NC(=O)[C@H](CCCNC(=N)N)NC(=O)[C@H](CCC(N)=O)NC(=O)[C@@H](NC(=O)[C@H](C)N)[C@@H](C)O)C(C)C [R3-GI (1)] (H-ATQRLANFLVHRRRNF[Sar]A[NMeI]LS-NH2; N-terminus assumed)
- Effect on amyloid self-assembly and cell-damaging effects of Aβ40 (Aβ40 [1]): able to inhibit
- IC50 (Aβ40 [3]): 116 nM
- app. Kd of interaction with fluorescently labeled Aβ40 (Aβ40 [4]): mid-nanomolar
- Effect on amyloid self-assembly and cell damage by IAPP (IAPP [5]): not IAPP amyloidogenesis
- app. Kd of interaction with fluorescently labeled IAPP (IAPP [6]): mid-nanomolar
